Data: ChEMBL document CHEMBL1201862, “PubChem BioAssay data set” (2004)
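Five concentrations, 48 hours, 96-well plates. Abbreviation: GI50, concentration required for 50% inhibition of growth.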 Activity calls are given as the source filed them. No stated cut-off is given here; in the data, active = GI50 up to about 1.1 µM and inactive = higher.

What was measured:
Assay in all cases: NCI tumour cell line growth inhibition, 48 h
DU-145 = test system: DU-145
MDA-MB-435 = test system: MDA-MB-435
OVCAR-5 = test system: OVCAR-5
NCI-H23 = test system: NCI-H23
EKVX = test system: EKVX
OVCAR-4 = test system: OVCAR-4
CAKI-1 = test system: CAKI-1
OVCAR-8 = test system: OVCAR-8
KM12 = test system: KM12
HCT-116 = test system: HCT-116
RXF 393 = test system: RXF 393
SW-620 = test system: SW-620
K562 = test system: K562
NCI-H460 = test system: NCI-H460
SK-MEL-28 = test system: SK-MEL-28
SF-268 = test system: SF-268
SK-MEL-5 = test system: SK-MEL-5
CCRF-CEM = test system: CCRF-CEM
HL-60 = test system: HL-60
RPMI-8226 = test system: RPMI-8226

Measured: GI50

CCN(CC(=O)O)C(=O)c1cccnc1
inactive: DU-145 > 100 µM | MDA-MB-435 > 100 µM | OVCAR-5 > 100 µM | NCI-H23 > 100 µM | EKVX > 100 µM | OVCAR-4 > 100 µM | CAKI-1 > 100 µM | OVCAR-8 > 100 µM | KM12 > 100 µM | HCT-116 > 100 µM | RXF 393 > 100 µM | SW-620 > 100 µM | K562 > 100 µM | NCI-H460 > 100 µM | SK-MEL-28 > 100 µM | SF-268 > 100 µM

C/C(Cl)=N\OC(=O)Nc1ccccc1C(F)(F)F
inactive: DU-145 > 100 µM | OVCAR-5 42.6 µM | NCI-H23 > 100 µM | EKVX 19.9 µM | OVCAR-4 13.8 µM | SK-MEL-5 > 100 µM | CAKI-1 > 100 µM | OVCAR-8 38.9 µM | KM12 > 100 µM | HCT-116 33.4 µM | CCRF-CEM 21.1 µM | HL-60 3.5 µM | SW-620 17.9 µM | K562 19 µM | NCI-H460 > 100 µM | SK-MEL-28 17.8 µM | SF-268 > 100 µM | RPMI-8226 21 µM

C=COC(=O)N1C2CCCC(Cl)(C(C)=O)C1CC2 (configuration not stated)
inactive: DU-145 > 100 µM | MDA-MB-435 58.9 µM | OVCAR-5 > 100 µM | NCI-H23 > 100 µM | EKVX > 100 µM | OVCAR-4 > 100 µM | SK-MEL-5 > 100 µM | CAKI-1 > 100 µM | OVCAR-8 > 100 µM | KM12 > 100 µM | HCT-116 > 100 µM | CCRF-CEM 13.4 µM | SW-620 > 100 µM | K562 > 100 µM | NCI-H460 > 100 µM | SK-MEL-28 > 100 µM | SF-268 66.1 µM | RPMI-8226 > 100 µM

CC(C)C(=O)OCN(C)c1nc(N(C)COC(=O)C(C)C)nc(N(C)COC(=O)C(C)C)n1
inactive: DU-145 37.5 µM | MDA-MB-435 17.8 µM | OVCAR-5 27.7 µM | NCI-H23 20.7 µM | EKVX > 100 µM | OVCAR-4 23.8 µM | SK-MEL-5 15.1 µM | CAKI-1 34.5 µM | OVCAR-8 19.8 µM | KM12 24.2 µM | HCT-116 32.1 µM | CCRF-CEM 22.3 µM | HL-60 22.3 µM | SW-620 21.6 µM | K562 30.5 µM | NCI-H460 21.8 µM | SK-MEL-28 19.8 µM | SF-268 > 10 µM | RPMI-8226 22.8 µM

O=CN1CCN(c2ccc3ccc(O)nc3n2)CC1
inactive: DU-145 > 100 µM | MDA-MB-435 > 100 µM | OVCAR-5 > 100 µM | NCI-H23 > 100 µM | EKVX > 100 µM | OVCAR-4 > 100 µM | CAKI-1 > 100 µM | OVCAR-8 > 100 µM | KM12 > 100 µM | HCT-116 > 100 µM | CCRF-CEM > 100 µM | HL-60 > 100 µM | SW-620 > 100 µM | K562 > 100 µM | NCI-H460 > 100 µM | SK-MEL-28 > 100 µM | SF-268 69.8 µM | RPMI-8226 > 100 µM

COC1CC(OC2CCC3(C)C(=CCC4C3C(OC(C)=O)C(OC(=O)CC(C)C)C3(C)C(C(C)=O)CCC43O)C2)OC(C)C1OC1CC(OC)C(OC2CC(OC)C(OC3OC(C)C(OC4OC(CO)C(O)C(O)C4O)C(OC)C3O)C(C)O2)C(C)O1 (configuration not stated)
inactive: DU-145 > 75 µM | MDA-MB-435 > 75 µM | OVCAR-5 > 75 µM | NCI-H23 > 75 µM | EKVX > 75 µM | OVCAR-4 > 75 µM | SK-MEL-5 > 75 µM | CAKI-1 > 75 µM | OVCAR-8 > 75 µM | KM12 > 75 µM | HCT-116 > 75 µM | CCRF-CEM > 7.5 µM | HL-60 > 75 µM | SW-620 > 75 µM | K562 > 75 µM | NCI-H460 > 7.5 µM | SK-MEL-28 > 75 µM | SF-268 > 75 µM | RPMI-8226 > 75 µM

O=C(Nc1ccc(F)cc1)c1cc2c(cc1Cl)Sc1nccn1S2(=O)=O
inactive: DU-145 > 100 µM | MDA-MB-435 59.4 µM | OVCAR-5 > 100 µM | EKVX > 100 µM | OVCAR-4 55.7 µM | SK-MEL-5 14.9 µM | CAKI-1 30.7 µM | OVCAR-8 85.9 µM | KM12 > 100 µM | HCT-116 35.6 µM | CCRF-CEM > 100 µM | RXF 393 31.7 µM | SW-620 > 100 µM | K562 > 100 µM | NCI-H460 33.5 µM | SK-MEL-28 88.5 µM | SF-268 37.3 µM

O=C(O)CSC(CC1(c2ccc(Cl)cc2)NC(=O)CS1)c1ccc(Cl)cc1 (configuration not stated)
inactive: DU-145 > 100 µM | MDA-MB-435 > 100 µM | OVCAR-5 > 100 µM | NCI-H23 > 100 µM | EKVX > 100 µM | OVCAR-4 > 100 µM | SK-MEL-5 > 100 µM | CAKI-1 > 100 µM | OVCAR-8 > 100 µM | KM12 > 100 µM | HCT-116 > 100 µM | CCRF-CEM 69.3 µM | HL-60 > 100 µM | SW-620 > 100 µM | K562 > 100 µM | NCI-H460 85.5 µM | SF-268 > 100 µM | RPMI-8226 > 100 µM

Nc1ccc(C2NC(=O)Cc3c2ccc2ccccc32)cc1 (configuration not stated)
inactive: DU-145 > 100 µM | MDA-MB-435 68.5 µM | OVCAR-5 > 100 µM | NCI-H23 > 100 µM | EKVX 84.7 µM | OVCAR-4 40.3 µM | SK-MEL-5 61.8 µM | CAKI-1 79.4 µM | OVCAR-8 56.1 µM | KM12 > 100 µM | HCT-116 81.1 µM | CCRF-CEM 80 µM | HL-60 35.2 µM | SW-620 > 100 µM | K562 > 100 µM | NCI-H460 71.1 µM | SK-MEL-28 > 100 µM | SF-268 89.5 µM | RPMI-8226 > 100 µM

CCOC(=O)CNC(=O)C(C)NC(=O)C(NC(=O)CC(c1ncc[nH]1)c1ncc[nH]1)C(C)CC (configuration not stated)
inactive: DU-145 > 100 µM | MDA-MB-435 > 100 µM | OVCAR-5 > 100 µM | NCI-H23 > 100 µM | EKVX > 100 µM | OVCAR-4 63.7 µM | CAKI-1 > 100 µM | OVCAR-8 > 100 µM | KM12 > 100 µM | HCT-116 > 100 µM | CCRF-CEM > 100 µM | HL-60 > 100 µM | SW-620 > 100 µM | K562 > 100 µM | NCI-H460 > 100 µM | SK-MEL-28 > 100 µM | SF-268 > 100 µM | RPMI-8226 > 100 µM

COc1ccc(N2C(=O)C3c4[nH]c5c(C)cccc5c4C4CCC(C(C)C)CC4C3C2=O)cc1 (configuration not stated)
inactive: DU-145 12.2 µM | MDA-MB-435 7.03 µM | OVCAR-5 14 µM | NCI-H23 17.3 µM | EKVX 16.7 µM | OVCAR-4 14 µM | SK-MEL-5 12 µM | CAKI-1 15 µM | OVCAR-8 12.1 µM | KM12 6.75 µM | HCT-116 9.73 µM | SW-620 11 µM | K562 2.01 µM | NCI-H460 7.94 µM | SK-MEL-28 13 µM | SF-268 6.01 µM | RPMI-8226 1.88 µM
